Results from US20020172720A1, “Control of pseudomonas aeruginosa” (priority 2001, published 2002).
“And” between values parts separate entries of the source, which are not always exact repeats. Identical values can stand only once.

System: Pseudomonas aeruginosa (ATCC 15442) biofilm
Experiment: MBEC (minimum biofilm eradication concentration) test, Calgary Biofilm Device
Type: cell-based
Settings: for MBEC, ppm as Br2, on 7-day old biofilm: one-hour biocide contact time, biofilm grown seven days in nutrient solution, halogen biocides expressed as Br2
Source text: The efficacy of this invention in eradicating (i.e. controlling) Pseudomonas aeruginosa biofilm of sufficient age such that it had developed an extracellular polysaccharide protective slime layer, was shown by a series of standard tests performed on our behalf at MBEC Biofilm Technologies, Inc., Calgary, Canada. The test procedure, developed at the University of Calgary, utilizes a device which allows the growth of 96 identical biofilms under carefully controlled conditions. The device consists of a two-part vessel comprised of an upper plate containing 96 pegs that seals against a bottom plate. The bottom plate can consist of either a trough (for biofilm growth) or a standard 96-well plate (for biocide challenge). The biofilms develop on the 96 pegs. The device has been used as a general method for evaluating the efficacy of antibiotics and biocides towards biofilms. See in this connection H. Ceri, et al., “The MBEC Test: A New In Vitro Assay Allowing Rapid Screening for Antibiotic Sensitivity of Biofilm”, Proceedings of the ASM, 1998,89,525; Ceri, et al., “Antifungal and Biocide Susceptibility testing of Candida Biofilms using the MBEC Device”, Proceedings of the Interscience Conference on Antimicrobial Agents and Chemotherapy, 1998, 38, 495; and H. Ceri, et al., “The Calgary Biofilm Device: A New Technology for the Rapid Determination of Antibiotic Susceptibility of Bacterial Biofilms”, Journal of Clinical Microbiology, 1999, 37, 1771-1776.
Six biocide systems were evaluated using the above test procedure and test equipment. Five of these systems were oxidizing biocides, viz., chlorine (from NaOCl), bromine (from NaOCl+NaBr), bromine and chlorine (from BCDMH), bromine (from sulfamate stabilized bromine chloride), and chlorine (from trichloroisocyanuric acid), all expressed as bromine (Br2) in mg/L, so that all test results were placed on the same basis. The sixth biocide was glutaraldehyde, a non-oxidizing biocide.
These biocide systems were used to challenge biofilms of Pseudomonas aeruginosa (ATCC 15442). This is a Gram (−) bacterium which is known to rapidly develop an extracellular polysaccharide slime layer, and is found in industrial and recreational water systems. See in this connection J. W. Costerton and H. Anwar, “Pseudomonas aeruginosa: The Microbe and Pathogen”, in Pseudomonas aeruginosa Infections and Treatment, A. L. Baltch and R. P. Smith editors, Marcel Dekker publishers, New York, 1994.
In the Table the MBEC (minimum biofilm eradication concentration) results presented are for the one-hour biocide contact time used in the test. The Psuedomonas aeurginosa colony was allowed to grow in contact with a nutrient solution for seven days. The values given for the halogen containing biocides are expressed in terms of mg/L of bromine as Br2. The data on the glutaraldehyde is in terms of mg/L as active ingredient. […]

[1] = average of the results, one-hour contact time, 7-day old biofilm, expressed as Br2

Row | Compound | MBEC, avg. (average (est.), one-hour contact time, 7-day old biofilm, glutaraldehyde as active ingredient) | MBEC, on 7-day old biofilm (individual results, one-hour contact time, 7-day old biofilm, glutaraldehyde as active ingredient) | MBEC, avg. [1] | MBEC, ppm as Br2, on 7-day old biofilm (individual results)
1 | O=CCCCC=O [Glutaraldehyde, glutaraldehyde] | ~200 (est.) mg/L as active ingredient | 100 mg/L as active ingredient and > 200 mg/L as active ingredient | – | –
2 | O=c1n(Cl)c(=O)n(Cl)c(=O)n1Cl [trichloroisocyanuric acid] | – | – | 20 ppm as Br2 | 20, 20 ppm as Br2
3 | CC1(C)C(=O)N(Cl)C(=O)N1Br [Bromine and chlorine (from BCDMH), N,N′-bromochloro-5,5-dimethylhydantoin] | – | – | 7.5 ppm as Br2 | 5 ppm as Br2 and 10 ppm as Br2
